Drawing on patent US7868005B2, “Pyrazinyl substituted piperazine-piperidines with CXCR3 antagonist activity” (Schering Corporation, priority 2005, dated 2011), this text covers IC50 for 45 molecules.

This test addresses T1, human CXCR3 (N-delta 4) (Homo sapiens, UniProt P49682).
T1 construct: CD8 leader (N); Flag; expressed in transfected cells; membranes prepared
T1 sequence (P49682 5-368 limits assumed): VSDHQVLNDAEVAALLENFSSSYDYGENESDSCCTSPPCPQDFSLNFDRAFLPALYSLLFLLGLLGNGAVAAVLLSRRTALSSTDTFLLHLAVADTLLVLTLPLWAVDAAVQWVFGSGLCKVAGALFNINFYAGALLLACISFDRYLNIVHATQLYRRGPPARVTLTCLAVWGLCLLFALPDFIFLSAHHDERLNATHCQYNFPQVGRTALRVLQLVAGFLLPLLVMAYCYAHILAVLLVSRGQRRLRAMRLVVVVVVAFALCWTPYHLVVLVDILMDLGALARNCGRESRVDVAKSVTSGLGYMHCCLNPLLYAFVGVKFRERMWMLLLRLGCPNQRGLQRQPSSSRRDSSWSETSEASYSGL
Kind of test: Human CXCR3 (N-delta 4) Scintillation Proximity Assay (SPA), [125I] IP-10 binding to Ba/F3-hCXCR3 membranes. In general terms: SPA uses beads or plates that emit light when radiolabelled molecules are held near them.

Where [1] appears, read: IC50 rating, Table 1, read-out: IC50.

Like-named read-outs stand apart in the source and are kept apart here. Where only a bound is given, the exact number is not on record here.

Usually IC50 stands for the midpoint of a concentration-inhibition curve. In the case of `CC[C@H]1CN(c2nc(N)c(C(=O)NCCO)nc2Cl)CCN1C1CCN(Cc2ccc(F)c(OCCSC)c2)CC1` [compound 413], the half-maximal inhibitory concentration (IC50) under setting [1] was less than 0.025 µM. Same read-out and setting: as for `CC[C@H]1CN(c2nc(N)c(C(=O)NCCNS(=O)(=O)CC)nc2Cl)CCN1C1CCN(Cc2ccc(C#N)cc2)CC1` [compound 242], the figure is 0.025 to 0.1 µM; as for `CC[C@H]1CN(c2nc(N)c(C(=O)NNC(C)=O)nc2Cl)CCN1C1CCN(Cc2ccc(Cl)cc2)CC1` [compound 272], 0.025 to 0.1 µM; as for `CC[C@H]1CN(c2nc(N)c(C(=O)NCCO)nc2Cl)CCN1C1CCN(Cc2ccc(OC(F)(F)F)cc2OCCCO)CC1` [compound 125], less than 0.025 µM. Still for that read-out and setting: under `CC[C@H]1CN(c2nc(N)c(C(N)=O)nc2Cl)CCN1C1CCN(Cc2ccc(O)c(F)c2)CC1` [compound 428] stands greater than 0.1 µM. For the molecule `CC[C@H]1CN(c2nc(N)c(C(=O)NCCO)nc2Cl)CCN1C1CCN([C@@H](CO)c2ccc(F)c(F)c2)CC1` [compound 122], under setting [1], the IC50 is less than 0.025 µM.

Consider `CC[C@H]1CN(c2nc(N)c(C(=O)NC)nc2Cl)CCN1C1CCN(C(=O)c2ccc(Cl)cc2O)CC1` [compound 343], for which the 50% inhibitory concentration (IC50) under setting [1] is 0.025 to 0.1 µM.

In the case of `CC[C@H]1CN(c2nc(N)c(C(=O)NC)nc2Cl)CCN1C1CCN([C@@H](C(=O)NC)c2ccc(Cl)cc2)CC1` [compound 71], the half-maximal inhibitory concentration (IC50) under setting [1] fell in the range of 0.025 to 0.1 µM. As for `CC[C@H]1CN(c2ncc(C(=O)NC)nc2C)CCN1C1CCN(C(=O)c2ccc(F)c(Cl)c2)CC1` [compound 456], the IC50 under setting [1] is less than 0.025 µM. For `CNC(=O)c1nc(Cl)c(N2CCN(C3CCN(Cc4ccc(Cl)cc4)CC3)[C@@H](C)C2)nc1N` [compound 65], under setting [1], the half-inhibitory concentration (IC50) is less than 0.025 µM. On the same count and under the same terms, under `CC[C@H]1CN(c2nc(N)c(C(=O)N=C(N)N)nc2Cl)CCN1C1CCN(Cc2ccc(Cl)cc2F)CC1` [compound 269] stands greater than 0.1 µM; under `CC[C@H]1CN(c2nc(N)c(C(=O)NCCO)nc2Cl)CCN1C1CCN(C(C(=O)O)c2ccc(Cl)cc2)CC1` (stereo partly drawn) [compound 184], 0.025 to 0.1 µM; under `CC[C@H]1CN(c2nc(N)c(C(=O)NC(=N)NC)nc2Cl)CCN1C1CCN(C(=O)c2ccc(C#N)cc2)CC1` [compound 399], less than 0.025 µM. For the molecule `CC[C@H]1CN(c2nc(N)c(C(=O)NC)nc2Cl)CCN1C1CCN(C(=O)c2ccc(Cl)cc2C)CC1` [compound 341], under setting [1], the IC50 is 0.025 to 0.1 µM.

Turning to `CC[C@H]1CN(c2nc(N)c(C(N)=O)nc2Cl)CCN1C1CCN(Cc2ccc(Cl)cc2C(=O)OC)CC1` [compound 31], the IC50 under setting [1] was 0.025 to 0.1 µM. For the molecule `CC[C@H]1CN(c2nc(N)c(C(=O)NCCO)nc2Cl)CCN1C1CCN([C@@H](CO)c2ccc(C#N)cc2)CC1` [compound 116], the IC50 under setting [1] was less than 0.025 µM.

As to `CC[C@H]1CN(c2nc(N)c(C(=O)NCCO)nc2Cl)CCN1C1CCN([C@@H](C(=O)OC)c2ccc(C#N)cc2)CC1` [compound 175], under setting [1], the IC50 is less than 0.025 µM. Same read-out and setting: under `CC[C@H]1CN(c2ncc(C(N)=O)nc2C)CCN1C1CCN([C@@H](C(=O)OC)c2ccc(Cl)cc2)CC1` [compound 463] stands less than 0.025 µM.

On to `CC[C@H]1CN(c2nc(N)c(C(=O)NCCNS(C)(=O)=O)nc2Cl)CCN1C1CCN(Cc2ccc(Cl)cc2C(=N)N)CC1` [compound 243], for which the IC50 under setting [1] was less than 0.025 µM. Still for that read-out and setting: under `CC[C@H]1CN(c2nc(N)c(C(=O)NC(=N)NC)nc2Cl)CCN1C1CCN(C(=O)c2ccc(OC(F)(F)F)cc2)CC1` [compound 402] stands less than 0.025 µM. Same read-out and setting: under `CC[C@H]1CN(c2nc(N)c(C(=O)NCCO)nc2Cl)CCN1C1CCN(Cc2ccc(Cl)cc2C(=N)N)CC1` [compound 111] stands less than 0.025 µM. Same read-out and setting: as for `CC[C@H]1CN(c2nc(N)c(C(=O)NCC(N)=O)nc2Cl)CCN1C1CCN(Cc2ccc(Cl)cc2)CC1` [compound 213], the figure is 0.025 to 0.1 µM. Turning to `CC[C@H]1CN(c2nc(N)c(C(N)=O)nc2Cl)CCN1C1CCN(Cc2ccc(-n3cncn3)cc2)CC1` [compound 54], the IC50 under setting [1] was greater than 0.1 µM.

As for `CC[C@H]1CN(c2nc(N)c(C(=O)NCCO)nc2Cl)CCN1C1CCN(Cc2ccc(Cl)cc2-c2nnn[nH]2)CC1` [compound 161], the IC50 under setting [1] is less than 0.025 µM. On the same count and under the same terms, under `CC[C@H]1CN(c2nc(N)c(C(N)=O)nc2Cl)CCN1C1CCN(Cc2ccc(Cl)cc2CC(=O)O)CC1` [compound 37] stands 0.025 to 0.1 µM. Regarding `CC[C@H]1CN(c2ncc(C(=O)NC3CC3)nc2C)CCN1C1CCN(Cc2ccc(F)c(F)c2)CC1` [Formula 11], under “human, read-out: human IC50”, the IC50 is less than 0.001 µM. In the case of `CC[C@H]1CN(c2nc(N)c(C(N)=O)nc2Cl)CCN1C1CCN(Cc2ccc(Cl)cc2S(=O)(=O)NC)CC1` [compound 429], the IC50 under setting [1] was greater than 0.1 µM. Regarding `C[C@H]1CN(c2nc(N)c(C(N)=O)nc2Cl)CCN1C1CCN(Cc2ccc(Cl)cc2)CC1` [compound 29], the IC50 under setting [1] was 0.025 to 0.1 µM. The same measure, in the same setting: under `CNC(=O)c1nc(Cl)c(N2C[C@H](C)N(C3CCN(Cc4ccc(Cl)cc4F)CC3)C[C@H]2C)nc1N` [compound 68] stands less than 0.025 µM; under `CCNC(=O)c1nc(Cl)c(N2CCN(C3CCN(Cc4ccc(Cl)cc4)CC3)[C@@H](CC)C2)nc1N` [compound 102], less than 0.025 µM; under `CC[C@H]1CN(c2nc(N)c(C(=O)NCC(=O)OC)nc2Cl)CCN1C1CCN(Cc2ccc(Cl)cc2)CC1` [compound 214], less than 0.025 µM. Same read-out and setting: under `CC[C@H]1CN(c2ncc(C(=O)NC3CC3)nc2C)CCN1C1CCN(Cc2ccc(F)cc2)CC1` [compound 440] stands less than 0.025 µM; under `CC[C@H]1CN(c2nc(N)c(C(=O)NCc3nccs3)nc2Cl)CCN1C1CCN(Cc2ccc(C#N)cc2)CC1` [compound 208], greater than 0.1 µM; under `CC[C@H]1CN(c2nc(N)c(C(=O)OC)nc2Cl)CCN1C1CCN(Cc2ccc(Cl)cc2C#N)CC1` [compound 300], greater than 0.1 µM.

In the case of `CC[C@H]1CN(c2nc(N)c(C(=O)NCCO)nc2Cl)CCN1C1CCN(Cc2ccc(F)c(OC)c2)CC1` [compound 394], the IC50 under setting [1] is less than 0.025 µM. `CC[C@H]1CN(c2nc(N)c(C(=O)NCCO)nc2Cl)CCN1C1CCN(C(=O)c2ccc(Cl)cc2CCNC(C)=O)CC1` [compound 352]: the IC50 under setting [1] was greater than 0.1 µM.

Turning to `CC[C@H]1CN(c2nc(N)c(C(=O)NCCO)nc2Cl)CCN1C1CCN(Cc2ccc(Cl)cc2OCCN2CCCC2=O)CC1` [compound 195], the IC50 under setting [1] is greater than 0.1 µM. Regarding `CC[C@H]1CN(c2nc(N)c(C(N)=O)nc2Cl)CCN1C1CCN([C@@H](C(=O)OC)c2ccc(Cl)cc2)CC1` [compound 56], under setting [1], the concentration for half-maximal inhibition (IC50) is greater than 0.1 µM.

With `CC[C@H]1CN(c2nc(N)c(C(=O)NCCC#N)nc2Cl)CCN1C1CCN(Cc2ccc(C#N)cc2)CC1` [compound 228], the IC50 under setting [1] was less than 0.025 µM.

For the molecule `CC[C@H]1CN(c2ncc(C(=O)NC3CC3)nc2C)CCN1C1CCN(Cc2ccc(C)c(F)c2)CC1` [compound 448], the IC50 under setting [1] is less than 0.025 µM. Still for that read-out and setting: as for `CC[C@H]1CN(c2nc(N)c(C(=O)NCCNS(N)(=O)=O)nc2Cl)CCN1C1CCN(Cc2ccc(Cl)cc2C(=N)NC)CC1` [compound 260], the figure is less than 0.025 µM; as for `CC[C@H]1CN(c2ncc(C(N)=O)nc2Br)CCN1C1CCN(C(=O)c2ccc(Cl)cc2)CC1` [compound 387], less than 0.025 µM.

For the molecule `CCNC(=O)c1nc(Cl)c(N2CCN(C3CCN(Cc4ccc(Cl)cc4F)CC3)[C@@H](CC)C2)nc1N` [compound 103], the concentration for half-maximal inhibition (IC50) under setting [1] was less than 0.025 µM.

For `CC[C@H]1CN(c2nc(N)c(C(=O)NCCO)nc2Cl)CCN1C1CCN(Cc2ccc(-c3ccc(F)cc3)cc2)CC1` [compound 140], under setting [1], the IC50 was less than 0.025 µM. Same read-out and setting: under `CCNC(=O)c1cnc(N2CCN(C3CCN(C(=O)c4ccc(Cl)cc4)CC3)[C@@H](CC)C2)c(C(F)(F)F)n1` [compound 484] stands less than 0.025 µM.
